From patent publication US20190161516A1, “PROTEASOME INHIBITORS” (University of Kentucky Research Foundation, priority 2017, published 2019)

Columns and labels:
[1] = system: Chymotrypsin-like activity (β5/β5i); experiment: Proteasome inhibitory activity, subunit-specific cell lysate IC50, chymotrypsin-like activity; format: biochemical
[2] = system: APPsw transgenic mouse (Tg2576) and LPS-induced mice (ICR strain); experiment: Morris water maze test in AD mouse models; format: in vivo; conditions: FIG. 12A-12D
Experimental: These two compounds were used to investigate the impacts of LMP2 inhibition on cognitive deficits in two animal models of human Alzheimer's disease (AD). In these AD models, AD develops by Aβ deposition (APPsw transgenic mouse) or lipopolysaccharide (LPS)-induced neuroinflammation. For the APPsw transgenic model, also known as Tg2576, 10-month old APPsw mice were treated i.p. with LMP2 inhibitors twice a week for 3 weeks. […] Once treatments were finished, Morris water maze test was performed. All mice were trained for three times a day for 5 days before the test. The escape latency and distance traveled were recorded on a daily-basis over a 5-day period. […] This supports that the efficacy of LMP2 inhibitors is mediated through LMP2 inhibition. One day after the completion of Morris water maze test, the ability of mouse to maintain memory was evaluated by probe trials. […] Sequentially, a step-through latency test was performed a day after the probe trial. […]
The learning trials were conducted over 5 days, with 4 trials per day, with three randomized starting points. […] Swimming pattern of each mouse was monitored and recorded by a camera mounted above the center of the pool, and the escape latency, escape distance and swimming speed were assessed by the SMART-LD program (Panlab, Spain). […]

[3] = system: reactive astrocytes and microglia; experiment: Immunohistochemical analysis of hippocampal tissues (GFAP, Iba1); format: in vivo, mouse
Text: Activation of neuroglia is closely linked to neuroinflammation, which is reported to be one of major factors involved in the development and progression of AD. Therefore, we set out to investigate whether LMP2 inhibitors could block the activation of astrocytes and microglia. We performed immunohistochemical analysis of hippocampal tissues isolated from the brains of both APPsw and LPS-induced mice, using GFAP and Iba1 as standard markers for reactive astrocytes and microglial, respectively.
Frozen tissues were cut into 30 μm thick sections and stored free floating in cryoprotectant solution (30% ethylenglycol, 20% glycerol, 50 mM sodium phosphate buffer, pH 7.4) at 4° C. until further use. For immunohistological staining, sections were rinsed in 1×PBS, incubated in blocking buffer (1×PBS containing 0.3% Triton X-100 and 10% normal goat serum) for 1 hr at room temperature and primary antibodies for GFAP (1:1000; Abcam) and Iba-1 (1:500; Abcam) were diluted in 1×PBS/0.3% triton X-100/5% normal goat serum and incubated over night at 4° C. […] Fluorescence imaging was performed using an Olympus XM10 monochrome fluorescence CCD camera (Olympus, Germany).

COX-2 = COX-2 expression by immunohistochemical analysis of hippocampal tissues; format: in vivo; conditions: hippocampal tissues from APPsw mouse, FIG. 11A right panel
Experimental: To directly verify the role of LMP2 in neuroinflammation pathways, we measured the expression of COX-2 by immunohistochemical analysis of hippocampal tissues from APPsw mouse.
Frozen tissues were cut into 30 μm thick sections and stored free floating in cryoprotectant solution (30% ethylenglycol, 20% glycerol, 50 mM sodium phosphate buffer, pH 7.4) at 4° C. until further use. For immunohistological staining, sections were rinsed in 1×PBS, incubated in blocking buffer (1×PBS containing 0.3% Triton X-100 and 10% normal goat serum) for 1 hr at room temperature and primary antibodies for GFAP (1:1000; Abcam) and Iba-1 (1:500; Abcam) were diluted in 1×PBS/0.3% triton X-100/5% normal goat serum and incubated over night at 4° C. Sections were washed with 1×PBS to wash off excessive primary antibodies, incubated with species specific peroxidase-coupled secondary antibodies (goat anti-mouse or goat anti-rabbit (1:300, Abcam)) diluted in 1×PBS/0.3% Triton X-100/5% normal goat serum and incubated for 1 h on a shaker at RT before developed with liquid diaminobezadine (DAB) (Dako, K3647). Sections were counterstained with matured hematoxylin, followed by dehydration in an ascending alcohol series before covered using Roti®-Histokitt II mounting medium. […] Fluorescence imaging was performed using an Olympus XM10 monochrome fluorescence CCD camera (Olympus, Germany).

## CC(=O)NCC(=O)N1CCC[C@H]1C(=O)N[C@@H](Cc1ccccc1)C(=O)N[C@@H](CC(C)C)C(=O)[C@@]1(C)CO1 [YU102]
[1]
  IC50: > 10 µM
[2]
  cognitive deficits in the APPsw mice: ameliorates cognitive deficits
[3]; GFAP, FIG. 11A
  activation of astrocytes: inhibits activation of astrocytes
[3]; Iba1, FIG. 11B
  activation of microglia: inhibits activation of microglia
COX-2
  COX-2 upregulation: significantly curtails COX-2 upregulation
